The numbers were not newly measured in patent US11208393B2, “Methods for extraction, processing, and purification of a selected family of target compounds from cannabis” (Nectar Health Sciences Inc., priority 2019, dated 2021), which cites them from elsewhere.

A word on the pKa: it is the negative logarithm of the acid dissociation constant.

The conditions of this series: of the protonated amine (ammonium ion).
On to `C1CN2CCN1CC2` [DABCO, 1,4-diazabicyclo[2.2.2]octane], for which the pKa is 8.9.

For the compound `CN(C)CCO` [(CH3)2NHCH2OH^+, dimethylethanolamine], the pKa is listed as 9.3.

Regarding `CN(C)CCN(C)C` [TMEDA, tetramethylethylenediamine], the pKa is reported as 9.0.
